According to patent publication US6482849B1, “Inhibitors of α4β1 mediated cell adhesion” (Tanabe Seiyaku Co., Ltd., priority 1997, dated 2002):
Structures can show the parent of a compound that is named as a salt.

Key:
[1] = target: T1, α4β1 integrin (Jurkat cell adhesion to immobilized CS-1 derived peptide CLHPGEILDVPST) (Homo sapiens, UniProt P05556+P13612); assay: Jurkat-CS-1 Assay; type: cell-based; conditions: Jurkat cells on CS-1 peptide coated plates
T1 construct: 100 μl of Jurkat cells (2.5×10^6 cells/ml) in DMEM plus BSA; endogenous in cells; host or cells: Jurkat T-cell line
T1 sequence (P13612 34-1032): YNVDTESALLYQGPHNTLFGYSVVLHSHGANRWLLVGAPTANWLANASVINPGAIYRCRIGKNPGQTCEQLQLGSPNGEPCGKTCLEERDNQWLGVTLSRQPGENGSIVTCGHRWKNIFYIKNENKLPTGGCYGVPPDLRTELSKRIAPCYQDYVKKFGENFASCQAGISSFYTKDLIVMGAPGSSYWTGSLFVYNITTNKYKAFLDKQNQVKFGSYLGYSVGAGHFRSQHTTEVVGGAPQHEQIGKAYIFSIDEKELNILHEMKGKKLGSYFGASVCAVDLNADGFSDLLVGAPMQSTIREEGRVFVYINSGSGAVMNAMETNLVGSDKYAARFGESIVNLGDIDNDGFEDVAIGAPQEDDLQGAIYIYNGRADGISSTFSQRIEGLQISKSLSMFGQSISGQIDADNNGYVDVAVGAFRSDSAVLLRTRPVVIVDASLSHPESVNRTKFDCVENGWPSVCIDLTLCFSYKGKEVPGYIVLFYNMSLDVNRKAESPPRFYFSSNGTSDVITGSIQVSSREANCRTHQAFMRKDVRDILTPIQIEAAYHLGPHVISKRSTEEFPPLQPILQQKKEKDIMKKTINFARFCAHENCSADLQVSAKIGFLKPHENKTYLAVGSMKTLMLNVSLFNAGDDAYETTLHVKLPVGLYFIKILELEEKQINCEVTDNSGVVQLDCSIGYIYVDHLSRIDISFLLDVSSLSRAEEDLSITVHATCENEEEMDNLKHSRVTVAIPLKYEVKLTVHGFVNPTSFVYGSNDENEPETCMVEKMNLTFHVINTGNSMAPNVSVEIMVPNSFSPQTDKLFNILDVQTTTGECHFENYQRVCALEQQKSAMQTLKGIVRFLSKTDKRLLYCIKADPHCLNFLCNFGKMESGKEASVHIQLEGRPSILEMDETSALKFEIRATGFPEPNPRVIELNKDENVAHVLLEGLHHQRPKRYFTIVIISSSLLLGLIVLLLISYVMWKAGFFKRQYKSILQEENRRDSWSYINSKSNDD
T1 sequence (P05556 21-798): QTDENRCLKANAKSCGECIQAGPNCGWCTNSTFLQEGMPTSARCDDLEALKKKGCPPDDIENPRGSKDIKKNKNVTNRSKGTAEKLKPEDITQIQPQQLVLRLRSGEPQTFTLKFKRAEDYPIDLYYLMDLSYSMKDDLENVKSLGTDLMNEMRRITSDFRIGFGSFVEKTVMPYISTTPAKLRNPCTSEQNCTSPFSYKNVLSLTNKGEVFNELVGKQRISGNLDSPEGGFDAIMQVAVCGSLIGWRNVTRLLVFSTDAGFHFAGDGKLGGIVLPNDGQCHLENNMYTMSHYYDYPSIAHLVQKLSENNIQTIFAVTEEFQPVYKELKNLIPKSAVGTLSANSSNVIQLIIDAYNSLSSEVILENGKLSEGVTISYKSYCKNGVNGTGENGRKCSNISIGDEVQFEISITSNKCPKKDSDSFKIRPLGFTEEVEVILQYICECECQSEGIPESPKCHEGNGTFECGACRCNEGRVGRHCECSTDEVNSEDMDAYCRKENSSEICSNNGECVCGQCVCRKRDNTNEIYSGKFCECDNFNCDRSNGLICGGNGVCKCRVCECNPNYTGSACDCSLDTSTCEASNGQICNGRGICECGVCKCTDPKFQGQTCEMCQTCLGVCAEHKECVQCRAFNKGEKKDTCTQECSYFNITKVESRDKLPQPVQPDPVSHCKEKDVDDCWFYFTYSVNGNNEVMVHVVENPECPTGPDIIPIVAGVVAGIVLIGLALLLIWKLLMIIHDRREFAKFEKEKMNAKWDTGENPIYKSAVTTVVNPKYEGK
Description: The CS-1 derived peptide, CLHPGEILDVPST, and the scrambled control peptide, CLHGPIELVSDPT, were synthesized on a Beckman 990 synthesizer using t-Boc methodology. The peptides were immobilized onto microtiter plates using the heterobifunctional crosslinker 3-(2-pyridyldithio)propionic acid N-hydroxysuccinimide ester (SPDP) as reported by Pierschbacher et al., Proc. Natl. Acad. USA, 80:1224-1227 (1983). Microtiter plates were coated with 20 μg/ml HSA for 2 hr. at room temperature, washed once with PBS and derivatized with 10 μg/ml SPDP for 1 hr. After washing, 100 μl of a 100 μg/ml cysteine containing peptide solution which had been recently dissolved was added to the wells and allowed to crosslink to the plates overnight at 4° C. Unbound peptide was removed from plates by washing with PBS. To block non-reacted sites, the plates are coated with 100 μl of a 2.5 mg/ml BSA solution in PBS for 1 hr. at 37° C. 100 μl of Jurkat cells (2.5×10^6 cells/ml) in DMEM plus BSA (2.5 mg/ml) was mixed with an appropriate concentration of the compound to be tested and the mixture was added to peptide coated dishes and incubated for 1 hr. at 37° C. Generally 100, 20, 5 and 1.25 μM concentrations of the compound were tested.
Following this incubation the plates were washed once with PBS and the attached cells were fixed with 3% paraformaldehyde in PBS and stained with 0.5% toluidine blue in 3.7% formaldehyde. The cells were stained overnight at room temperature and the optical density at 590 nm of toluidine blue stained cells was determined using a vertical pathway spectrophotometer to quantitate attachment (VMAX Kinetic Microplate Reader, Molecular Devices, Menlo Park, Calif.). This procedure is a modification of a previously published method (Cardarelli et al, J. Biol. Chem., 269:18668-18673 (1994) and Cardarelli et al, Proc. Natl. Acad. Sci. USA, 83:2647-2651 (1986)).

[2] = target: T2, α4β1 integrin (Jurkat T-cell adhesion to IL-1 stimulated endothelial cell monolayers) (Homo sapiens, UniProt P05556+P13612); assay: Jurkat-Endothelial Cell Adhesion Assay (Jurkat EC); type: cell-based; conditions: Jurkat cells on IL-1 stimulated HUVEC monolayers
T2 construct: a T-cell line, Jurkat, known to express the α4β1 integrin; host or cells: Jurkat T-cell line
T2 sequence (P13612 34-1032): as the sequence (P13612 34-1032) above
T2 sequence (P05556 21-798): as the sequence (P05556 21-798) above
Description: The following assay established the activity of the present compounds in inhibiting β1-mediated cell adhesion in a representative in vitro system. This assay measures the adhesive interactions of a T-cell line, Jurkat, known to express the α4β1 integrin, to endothelial monolayers in the presence of test compounds. The test compounds were added in increasing concentrations to T-cells and then the T-cell compound mixture was added to IL-1 stimulated endothelial cell monolayers. The plates were incubated, washed and the percentage of attached cells was quantitated. […] Human umbilical vein endothelial cells were purchased from Clonetics (San Diego, Calif.) at passage number 2. The cells were grown on 0.5% porcine skin gelatin pre-coated flasks (Sigma, St. Louis Mo.) in EGM-UV media (Clonetics, San Diego, Calif.) supplemented with 10% fetal bovine serum. Cells are refed every 2-3 days reaching confluence by day 4 to 6. […] The endothelial cells are not used following passage 6. Am The T-cell line Jurkat was obtained from American Type Tissue Culture Collection (Rockville, Md.) and the cells were cultured in RPMI containing 10% fetal calf serum. The cells were washed twice in Hank's Balanced Salt Solution (HBSS) and resuspended in Dulbecco's […] Eagle's Media (DMEM) containing 2.5 mg/ml Human Serum Albumin (HSA). Jurkat cells (1×10^6 cells/ml) were stained with 10 ng/ml BCECF-AM z z (Molecular Probes, Eugene, Ore.)) in HBSS without phenol red. The cells were loaded with BCECF for 60 minutes in the dark at 37° C., washed 2 times, and resusupended in DMEM-HSA solution.
Confluent endothelial monolayers, grown in 96-well tissue culture plates, were stimulated for 4 hr. at 37° C. with 0.1 ng/ml (˜50 U/ml) recombinant IL-1 (Amgen, Thousand Oaks, Calif.). Following this incubation, the monolayers were washed twice with HBSS and 0.1 ml of DMEM-HSA solution was added. Jurkat cells (5×10^5 cells) were combined with the appropriate concentration of the test compound and 0.1 ml of the Jurkat cell-compound mixture was added to the endothelial cell monolayers. Generally, 100, 20, 5 and 1.25 μM compound concentrations were tested. […] The plates were placed on ice for 5 minutes to allow for Jurkat cell settling and the plates were incubated at 37° C. for 20 minutes. Following this incubation, the monolayers were washed twice with PBS containing 1 mM calcium chloride and 1 mM magnesium chloride and the plates were read using a Millipore Cytofluor 2300 (Marlboro, Mass.). Fluorescence in each well was measured as Arbitrary Fluorescence Units and percent adhesion in the absence of compound was adjusted to 100% and the % adhesion in the presence of compound was calculated. Monolayers were also fixed in 3% paraformaldehyde and evaluated microscopically to verify the adhesion. This procedure is a modification of a previously published method (Cardarelli et al., J. Biol. Chem. 269:18668-18673 (1994)).

| IC50 [1] [nM] | IC50 [2] [nM] | SMILES |
| --- | --- | --- |
| ≤ 80 | 5000 to 10000 | CC1(C)[C@@H](C(=O)N[C@@H](Cc2ccc(NC(=O)c3c(Cl)cccc3Cl)cc2)C(=O)O)CC[C@@]1(C)C(=O)N[C@H](CCCCN)C(=O)O (relative stereo) [Example 179] |
| 80 to 500 | 800 to 5000 | C[C@H](NC(=O)[C@]1(C)CC[C@H](C(=O)N[C@@H](Cc2ccc(OCc3c(Cl)cccc3Cl)cc2)C(=O)O)C1(C)C)C(=O)O (relative stereo) [Example 188, [1S-[1α, 3α(R)]]-N-[[3-[[(1-Carboxyethyl)amino]carbonyl]-2,2,3-trimethylcyclopentyl]carbonyl]-O-[(2,6-dichlorophenyl)methyl]-L-tyrosine] |
| 80 to 500 | 800 to 5000 | CC1(C)[C@@H](C(=O)N[C@@H](Cc2ccc(OCc3c(Cl)cccc3Cl)c(Cl)n2)C(=O)O)CC[C@@]1(C)C(=O)O (relative stereo) [Example 194, [1S-[1α(R*),3α]]-α-[[(3-Carboxy-2,2,3-trimethylcyclopentyl)carbonyl]amino]-6-chloro-5-[(2,6-dichlorophenyl)methoxy]-2-pyridinepropanoic acid] |
| ≤ 80 | ≤ 800 | C[C@H](NC(=O)[C@]1(C)CC[C@H](C(=O)N[C@@H](Cc2ccc(NC(=O)c3c(Cl)cccc3Cl)cc2)C(=O)O)C1(C)C)C(=O)O (relative stereo) [Example 211, [1S-[1α,3α(S*)]]-N-[[3-[[(1-Carboxyethyl)amino]carbonyl]-2,2,3-trimethylcyclopentyl]carbonyl]-4-[(2,6-dichlorobenzoyl)amino]-L-phenylalanine] |
| 80 to 500 | 5000 to 10000 | CC1(C)[C@@H](C(=O)N[C@@H](Cc2ccc(NC(=O)c3c(Cl)cccc3Cl)cc2)C(=O)O)CC[C@@]1(C)C(=O)N1CCC[C@@H]1C(N)=O (relative stereo) [Example 212, [1S-[1α,3α(S*)]]-N-[3-[[2-(Aminocarbonyl)-1-pyrrolidinyl]carbonyl]-2,2,3-trimethylcyclopentyl]-carbonyl]-4-[(2,6-dichlorobenzoyl)amino]-L-phenylalanine monolithium salt] |
| 80 to 500 | 800 to 5000 | CC1(C)[C@@H](C(=O)N[C@@H](Cc2ccc(NC(=O)c3c(Cl)cccc3Cl)cc2)C(=O)O)CC[C@@]1(C)C(=O)N1CCC[C@H]1C(N)=O (relative stereo) [Example 213, [1S-[1α,3α(R*)]]-N-[3-[[2-(Aminocarbonyl)-1-pyrrolidinyl]carbonyl]-2,2,3-trimethylcyclopentyl]-carbonyl]-4-[(2,6-dichlorobenzoyl)amino]-L-phenylalanine monosodium salt] |
| 80 to 500 | ≤ 800 | CNC(=O)[C@@H]1CCCN1C(=O)[C@]1(C)CC[C@H](C(=O)N[C@@H](Cc2ccc(NC(=O)c3c(Cl)cccc3Cl)cc2)C(=O)O)C1(C)C (relative stereo) [Example 215, [1S-[1α,3α(R*)]]-N-[3-[[2-[(Methylamino)carbonyl]-1-pyrrolidinyl]carbonyl]-2,2,3-trimethyl-cyclopentyl]carbonyl]-4-[(2,6-dichlorobenzoyl)amino]-L-phenylalanine monosodium salt] |
|  | 5000 to 10000 | COc1ccc(Cn2cnc(C[C@H](NC(=O)[C@H]3CC[C@@](C)(C(=O)O)C3(C)C)C(=O)O)c2)cc1 [Example 31] |
| 80 to 500 |  | COC(=O)[C@H](Cc1ccc(NC(=O)c2ccccc2C)cc1)NC(=O)[C@H]1CC[C@@](C)(C(=O)O)C1(C)C [Example 137] |
|  | 800 to 5000 | CC1(C)[C@H](C(=O)N[C@@H](Cc2ccc(OCc3c(Cl)cccc3Cl)cc2)C(=O)O)CC[C@]1(C)C(=O)O [Example 189, (1R-cis)-N-[(3-Carboxy-2,2,3-trimethylcyclopentyl)carbonyl]-O-[(2,6-dichlorophenyl)methyl]-L-tyrosine] |
